This note sets out measurements from US10934274B2, “Quinoline derivatives as TAM RTK inhibitors” (Qurient Co., Ltd., priority 2015, dated 2021).

As usually defined, the IC50 is the concentration at which inhibition is half-maximal. By Kd is commonly meant the equilibrium constant for the complex coming apart.

The subject of test [1] is Axl phosphorylation in transiently transfected HEK293T cells. The experiment in a line: Cellular Axl phosphorylation assay. The class given is cell-based. To be noted: Homo sapiens, HEK-293T; HEK293T cells transfected with Axl, 1 hour compound treatment, Phospho-Axl vs Total-Axl. An excerpt:
Cell AXL Inhibition Assay Principle
The assay is based on the measurement of the relative amounts of Total-Axl and Phosphorylated-Axl in whole cell lysates of transiently transfected HEK293T cells. This assay is based on application of the Mesoscale western blot and subsequent electro-chemiluminescence detection. Overexpression of Axl-RTK (Receptor tyrosine kinase) by transfection leads to an increase in Axl-trans-autophosphorylation events. Upon compound treatment, the correlation of the measured values of Phosphorylated-Axl and Total Axl indicate the potential of the tested compound to inhibit Axl-phosphorylation at the given compound concentration.
Cell AXL Inhibition Assay Protocol
HEK293T cells (2.5×10^4/well) were plated in a 96 well plate and cells were transfected with pcDNA_DEST_40 Axl or pcDNA_DEST_40 by Superfact reagent (Qiagen. Co. Ltd.). After overnight, the transfection reagent of each well was removed from cells and replaced by fresh prewarmed medium. On the following day, cells were treated with the respective test compound which was diluted by the same method, as in the Axl binding assay using DMSO, for 1 hour
After incubation with the test compounds, cells in the well of the plate were lysed using Tris lysis buffer. The lysate was transferred to two plates (total-Axl and phosphor-Axl) Mesoscale high bind plates and incubated for two hours at room temperature. Afterwards the lysates were removed from the plates and the plates were blocked using Blocking buffer. Subsequently Total-Axl antibody (H-124, Santa Cruz) was transferred to one Mesoscale high bind plate, and Phospho-Axl antibody (AF2228, R&D) to the other plate. After 1 h incubation, Sulpho-Tag antibody (goat anti-rabbit, Mesoscale) was added and again incubated for 1 hour. For the measurement, 2×MSD read buffer was added to each well and the plates were analyzed with a Mesoscale Sector Imager 2400. IC50 (half the maximal inhibitory concentration) was determined relative to between the vehicle (DMSO) control group and minimum control group as transfection of the control vector (pcDNA_DEST_40).
The results after this assay are shown in table 3 for selected compounds.

The target in another test is T1, TYRO3 (Homo sapiens, UniProt Q06418).
T1 construct: purchased Life Technologies
T1 sequence (Q06418 41-890): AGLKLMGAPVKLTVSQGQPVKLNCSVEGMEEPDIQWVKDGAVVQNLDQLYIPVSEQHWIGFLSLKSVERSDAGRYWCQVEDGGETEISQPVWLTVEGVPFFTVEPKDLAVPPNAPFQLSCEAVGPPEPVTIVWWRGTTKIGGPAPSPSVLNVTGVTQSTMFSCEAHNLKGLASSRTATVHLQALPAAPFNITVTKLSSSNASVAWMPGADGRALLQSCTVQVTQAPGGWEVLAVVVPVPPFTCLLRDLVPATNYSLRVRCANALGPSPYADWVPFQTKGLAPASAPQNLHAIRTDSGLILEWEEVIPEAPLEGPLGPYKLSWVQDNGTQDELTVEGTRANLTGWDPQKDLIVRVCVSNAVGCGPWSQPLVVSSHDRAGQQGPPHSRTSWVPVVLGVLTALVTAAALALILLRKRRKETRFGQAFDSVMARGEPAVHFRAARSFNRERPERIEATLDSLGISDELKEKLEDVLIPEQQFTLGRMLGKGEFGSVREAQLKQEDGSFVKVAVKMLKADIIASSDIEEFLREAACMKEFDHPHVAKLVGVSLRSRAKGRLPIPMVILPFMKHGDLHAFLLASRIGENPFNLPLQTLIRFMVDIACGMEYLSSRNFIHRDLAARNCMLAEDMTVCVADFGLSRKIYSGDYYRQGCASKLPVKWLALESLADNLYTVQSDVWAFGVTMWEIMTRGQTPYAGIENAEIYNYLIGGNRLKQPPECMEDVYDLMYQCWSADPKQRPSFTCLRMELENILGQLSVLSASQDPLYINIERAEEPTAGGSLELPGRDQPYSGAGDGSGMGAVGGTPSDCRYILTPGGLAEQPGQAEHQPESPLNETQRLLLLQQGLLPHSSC
The test can be described thus: LanthaScreen Eu kinase binding assay, TYRO3. The settings on record: Tracer 236. For orientation: Time-resolved FRET reads energy transfer from a long-lived donor to a nearby acceptor.

The target in the next test is T2, Met (Homo sapiens, UniProt P08581).
T2 construct: purchased Life Technologies
T2 sequence (P08581 25-1390): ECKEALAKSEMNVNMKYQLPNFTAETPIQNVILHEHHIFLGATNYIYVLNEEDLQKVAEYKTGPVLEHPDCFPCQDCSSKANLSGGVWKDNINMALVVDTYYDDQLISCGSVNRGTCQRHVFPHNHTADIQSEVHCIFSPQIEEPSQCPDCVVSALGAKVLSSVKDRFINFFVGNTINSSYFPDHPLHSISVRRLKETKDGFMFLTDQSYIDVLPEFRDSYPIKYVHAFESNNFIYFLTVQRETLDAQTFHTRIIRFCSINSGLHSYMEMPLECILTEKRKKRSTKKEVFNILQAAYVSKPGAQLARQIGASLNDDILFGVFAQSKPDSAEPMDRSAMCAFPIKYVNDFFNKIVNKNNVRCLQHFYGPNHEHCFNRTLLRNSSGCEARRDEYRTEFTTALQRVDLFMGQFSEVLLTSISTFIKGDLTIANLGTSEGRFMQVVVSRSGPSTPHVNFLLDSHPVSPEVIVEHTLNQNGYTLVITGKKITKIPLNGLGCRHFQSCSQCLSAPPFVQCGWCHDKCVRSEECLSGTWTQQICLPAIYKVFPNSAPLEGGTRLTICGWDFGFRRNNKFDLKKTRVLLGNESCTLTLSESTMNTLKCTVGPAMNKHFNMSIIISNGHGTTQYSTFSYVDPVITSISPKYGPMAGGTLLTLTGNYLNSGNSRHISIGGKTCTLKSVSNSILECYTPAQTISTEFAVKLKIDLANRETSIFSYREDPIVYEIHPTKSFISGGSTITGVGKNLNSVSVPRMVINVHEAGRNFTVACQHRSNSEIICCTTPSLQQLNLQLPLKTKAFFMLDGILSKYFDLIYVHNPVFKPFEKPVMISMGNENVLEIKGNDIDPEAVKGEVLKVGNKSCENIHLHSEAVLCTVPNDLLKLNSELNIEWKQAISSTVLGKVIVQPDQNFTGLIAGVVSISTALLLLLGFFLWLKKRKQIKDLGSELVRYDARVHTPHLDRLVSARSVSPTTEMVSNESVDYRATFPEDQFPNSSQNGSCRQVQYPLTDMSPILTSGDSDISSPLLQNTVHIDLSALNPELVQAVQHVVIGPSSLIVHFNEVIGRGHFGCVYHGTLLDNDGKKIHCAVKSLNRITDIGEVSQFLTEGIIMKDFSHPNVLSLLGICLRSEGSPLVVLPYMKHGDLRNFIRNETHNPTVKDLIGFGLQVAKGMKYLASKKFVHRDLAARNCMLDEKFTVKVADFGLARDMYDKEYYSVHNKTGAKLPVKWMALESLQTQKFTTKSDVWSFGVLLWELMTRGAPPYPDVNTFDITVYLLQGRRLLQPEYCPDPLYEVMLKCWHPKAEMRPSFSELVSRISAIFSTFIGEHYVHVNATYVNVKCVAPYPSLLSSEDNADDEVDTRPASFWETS
The test can be described thus: LanthaScreen Eu kinase binding assay, Met. The settings on record: Tracer 236, read-out: cMet kinase binding activity (Kd).

Where only a bound is given, the exact number is not on record here.

As for `CCOc1cn(-c2ccc(Cl)c(CN(C)C)c2)nc1C(=O)Nc1ccc(Oc2ccnc3cc(OC)c(OC)cc23)cn1` [Compound 126], the IC50 in test [1] was < 100 nM. Besides, the Kd at TYRO3 was ≥ 1000 nM; at Met, < 100 nM.

Turning to `CCOc1cn(-c2ccc(C(C)C)cc2F)nc1C(=O)Nc1ccc(Oc2ccnc3cc(OC)c(OC)cc23)cn1` [Compound 127], the IC50 in test [1] is < 100 nM. Further, the dissociation constant Kd at TYRO3 is ≥ 1000 nM; on Met, < 100 nM.

Turning to `CCOc1cn(-c2ccc(F)c(CO)c2)nc1C(=O)Nc1ccc(Oc2ccnc3cc(OC)c(OC)cc23)cn1` [Compound 128], in test [1], the IC50 is < 100 nM. The Kd on TYRO3 and at Met was < 100 nM in each case.

As for `CCOc1cn(-c2ccc(Cl)c(C(=O)N(C)C)c2)nc1C(=O)Nc1ccc(Oc2ccnc3cc(OC)c(OC)cc23)cn1` [Compound 129], the IC50 in test [1] was < 100 nM. Further, the Kd at TYRO3 was ≥ 1000 nM; on Met, < 100 nM.

Take `CCOc1cnn(-c2ccc(Cl)c(CN(C)C)c2)c1C(=O)Nc1ccc(Oc2ccnc3cc(OC)c(OC)cc23)cn1` [Compound 130]: the IC50 in test [1] was < 100 nM. In addition, the Kd on TYRO3 was 100 to 1000 nM; on Met, < 100 nM.

Regarding `CCOc1cn(-c2ncc(Cl)cc2C#N)nc1C(=O)Nc1ccc(Oc2ccnc3cc(OC)c(OC)cc23)cn1` [Compound 133], the half-maximal inhibitory concentration (IC50) in test [1] is < 100 nM. The Kd on TYRO3 and on Met was < 100 nM in each case.

As to `CCOc1cn(-c2cnc(N)nc2)nc1C(=O)Nc1ccc(Oc2ccnc3cc(OC)c(OC)cc23)c(F)c1` [Compound 141], the IC50 in test [1] was < 100 nM. Besides, the Kd at TYRO3 and at Met was < 100 nM throughout.

With `CCOc1cn(-c2cnc(OC)nc2)nc1C(=O)Nc1ccc(Oc2ccnc3cc(OC)c(OC)cc23)cn1` [Compound 148], the IC50 in test [1] was < 100 nM. Further, the results for the Kd on TYRO3 and at Met were ≥ 1000 nM and < 100 nM, respectively.

Turning to `CCOc1cn(-c2cnccc2C)nc1C(=O)Nc1ccc(Oc2ccnc3cc(OC)c(OC)cc23)cc1F` [Compound 151], the IC50 in test [1] was < 100 nM. The Kd at TYRO3 and at Met was < 100 nM in each case.

`CCOc1cn(-c2cnc(C)cn2)nc1C(=O)Nc1ccc(Oc2ccnc3cc(OC)c(OC)cc23)cn1` [Compound 160]: the IC50 in test [1] is < 100 nM. Further, the Kd on TYRO3 is ≥ 1000 nM; on Met, < 100 nM.

Regarding `CCOc1cn(-c2noc(C)n2)nc1C(=O)Nc1ccc(Oc2ccnc3cc(OC)c(OC)cc23)cn1` [Compound 161], in test [1], the IC50 was < 100 nM. For the same molecule, the Kd on TYRO3 and at Met was < 100 nM throughout.

`CCOc1cn(-c2nccnc2C(F)(F)F)nc1C(=O)Nc1ccc(Oc2ccnc3cc(OC)c(OC)cc23)cn1` [Compound 162]: in test [1], the IC50 was < 100 nM. In addition, the Kd at TYRO3 was 100 to 1000 nM; at Met, < 100 nM.

As to `CCOc1cn(-c2ncn(C)n2)nc1C(=O)Nc1ccc(Oc2ccnc3cc(OC)c(OC)cc23)cn1` [Compound 165], the IC50 in test [1] is < 100 nM. Moreover, the Kd on TYRO3 is 100 to 1000 nM; at Met, < 100 nM.

Take `CCOc1cn(-c2cncnc2C2CC2)nc1C(=O)Nc1ccc(Oc2ccnc3cc(OC)c(OC)cc23)cn1` [Compound 167]: the IC50 in test [1] is < 100 nM. Further, the Kd on TYRO3 and on Met was < 100 nM each time.

Regarding `CCOc1cn(-c2nc[nH]n2)nc1C(=O)Nc1ccc(Oc2ccnc3cc(OC)c(OC)cc23)cn1` [Compound 168], the IC50 in test [1] is < 100 nM. For the same molecule, the Kd on TYRO3 and on Met was < 100 nM each time.

On to `CCOc1cn(-c2cnc(Cl)cn2)nc1C(=O)Nc1ccc(Oc2ccnc3cc(OC)c(OC)cc23)cn1` [Compound 169], for which, in test [1], the IC50 is < 100 nM. For the same molecule, the Kd at TYRO3 and on Met was ≥ 1000 nM each time.

In the case of `CCOc1cn(-c2cnccc2C(F)(F)F)nc1C(=O)Nc1ccc(Oc2ccnc3cc(OC)c(OC)cc23)cn1` [Compound 170], the IC50 in test [1] is < 100 nM. Also, the Kd on TYRO3 and on Met was < 100 nM throughout.

For the molecule `CCOc1cn(-c2nccnc2Cl)nc1C(=O)Nc1ccc(Oc2ccnc3cc(OC)c(OC)cc23)cn1` [Compound 177], in test [1], the IC50 was < 100 nM. The Kd on TYRO3 and on Met was < 100 nM throughout.

On to `CCOc1cn(-c2cnccc2CO)nc1C(=O)Nc1ccc(Oc2ccnc3cc(OC)c(OC)cc23)cn1` [Compound 179], for which, in test [1], the IC50 was < 100 nM. The Kd on TYRO3 and at Met was < 100 nM each time.

As for `CCOc1cn(-c2cnccc2CCO)nc1C(=O)Nc1ccc(Oc2ccnc3cc(OC)c(OC)cc23)cn1` [Compound 181], in test [1], the IC50 was < 100 nM. Also, the dissociation constant Kd at TYRO3 and at Met was < 100 nM throughout.

With `CCOc1cn(-c2cnccc2C(C)=O)nc1C(=O)Nc1ccc(Oc2ccnc3cc(OC)c(OC)cc23)cn1` [Compound 182], the IC50 in test [1] is < 100 nM. Also, the Kd at TYRO3 and at Met was < 100 nM each time.

In the case of `CCOc1cn(-c2cnccc2Cl)nc1C(=O)Nc1ccc(Oc2ccnc3cc(OC)c(OC)cc23)cn1` [Compound 183], the IC50 in test [1] is < 100 nM. Besides, the Kd at TYRO3 and on Met was < 100 nM each time.

Take `CCOc1cn(-c2cnccc2C(C)(C)O)nc1C(=O)Nc1ccc(Oc2ccnc3cc(OC)c(OC)cc23)cn1` [Compound 184]: the IC50 in test [1] was < 100 nM. Moreover, the Kd at TYRO3 and on Met was < 100 nM each time.

Consider `COc1cc2nccc(Oc3ccc(NC(=O)c4nn(-c5cccnc5)cc4OCC(F)(F)F)nc3)c2cc1OC` [Compound 185], for which, in test [1], the IC50 was < 100 nM. In addition, the Kd on TYRO3 and at Met was < 100 nM in each case.

For the molecule `COc1cc2nccc(Oc3ccc(NC(=O)c4nn(-c5ccc(OC(F)(F)F)cc5Cl)cc4OCC(F)(F)F)nc3)c2cc1OC` [Compound 186], the IC50 in test [1] is < 100 nM. Moreover, the Kd on TYRO3 and on Met was 100 to 1000 nM each time.

Consider `CCOc1cn(-c2c(C)ccnc2C)nc1C(=O)Nc1ccc(Oc2ccnc3cc(OC)c(OC)cc23)c(F)c1` [Compound 188], for which, in test [1], the IC50 is < 100 nM. Besides, the Kd on TYRO3 and at Met was < 100 nM in each case.

With `CCOc1cn(-c2ccc(OC(F)(F)F)cc2Cl)nc1C(=O)Nc1ccc(Oc2ccnc3cc(OC)c(OC)cc23)c(F)c1` [Compound 189], in test [1], the IC50 was < 100 nM. Also, the Kd on TYRO3 and on Met was < 100 nM in each case.

For the molecule `CCOc1cn(-c2nccnc2Cl)nc1C(=O)Nc1ccc(Oc2ccnc3cc(OC)c(OC)cc23)cc1F` [Compound 190], the IC50 in test [1] is < 100 nM. Besides, the Kd on TYRO3 and at Met was < 100 nM in each case.

On to `CCOc1cn(-c2c(C)ccnc2C)nc1C(=O)Nc1ccc(Oc2ccnc3cc(OC)c(OC)cc23)cc1F` [Compound 191], for which, in test [1], the IC50 was < 100 nM. In addition, the Kd on TYRO3 and at Met was < 100 nM in each case.

Turning to `CCOc1cn(-c2ccc(OC(F)(F)F)cc2Cl)nc1C(=O)Nc1ccc(Oc2ccnc3cc(OC)c(OC)cc23)cc1F` [Compound 192], in test [1], the IC50 was < 100 nM. Besides, the Kd on TYRO3 was 100 to 1000 nM; on Met, < 100 nM.

Consider `CCOc1cn(-c2cnccc2Cl)nc1C(=O)Nc1ccc(Oc2ccnc3cc(OC)c(OC)cc23)c(F)c1` [Compound 193], for which the IC50 in test [1] was < 100 nM. Moreover, the Kd at TYRO3 and at Met was < 100 nM in each case.
